Our source for the mutagenic call values is PubChem BioAssay AID1259407 (Chemical Carcinogenesis Research Information System (CCRIS), 2018).

Active and inactive are the calls of the source. How the calls were made is not given here.

The test system of this data set is CCRIS mutagenicity, Ames/micronucleus/aberration tests. Kind of data set: CCRIS mutagenicity studies.

Turning to `CC1=CCC(C(C)(C)O)CC1` (stereo not given), the mutagenic call reads like this: (Test System: AMES SALMONELLA TYPHIMURIUM, Strain/Indicator: TA97A, Metabolic Activation: NONE, Method: STANDARD PLATE) “inactive; negative”; (Test System: AMES SALMONELLA TYPHIMURIUM, Strain/Indicator: TA97A, Metabolic Activation: RAT LIVER S-9, AROCLOR 1254, Method: STANDARD PLATE) “inactive; negative”; (Test System: AMES SALMONELLA TYPHIMURIUM, Strain/Indicator: TA98, Metabolic Activation: HAMSTER, LIVER, S-9, AROCLOR 1254, Method: STANDARD PLATE) “inactive; negative”; (Test System: AMES SALMONELLA TYPHIMURIUM, Strain/Indicator: TA98, Metabolic Activation: NONE, Method: STANDARD PLATE) “inactive; negative”; (Test System: AMES SALMONELLA TYPHIMURIUM, Strain/Indicator: TA98, Metabolic Activation: RAT LIVER S-9 AROCLOR 1254, Method: STANDARD PLATE) “inactive; negative”; (Test System: AMES SALMONELLA TYPHIMURIUM, Strain/Indicator: TA98, Metabolic Activation: RAT, LIVER, S-9, AROCLOR 1254, Method: STANDARD PLATE) “inactive; negative”. Further, the mutagenic call runs as follows: (Test System: AMES SALMONELLA TYPHIMURIUM, Strain/Indicator: TA100, Metabolic Activation: HAMSTER, LIVER, S-9, AROCLOR 1254, Method: STANDARD PLATE) “inactive; negative”; (Test System: AMES SALMONELLA TYPHIMURIUM, Strain/Indicator: TA100, Metabolic Activation: NONE, Method: STANDARD PLATE) “inactive; negative”; (Test System: AMES SALMONELLA TYPHIMURIUM, Strain/Indicator: TA100, Metabolic Activation: RAT LIVER S-9, AROCLOR 1254, Method: STANDARD PLATE) “inactive; negative”; (Test System: AMES SALMONELLA TYPHIMURIUM, Strain/Indicator: TA100, Metabolic Activation: RAT, LIVER, S-9, AROCLOR 1254, Method: STANDARD PLATE) “inactive; negative”; (Test System: AMES SALMONELLA TYPHIMURIUM, Strain/Indicator: TA1535, Metabolic Activation: HAMSTER, LIVER, S-9, AROCLOR 1254, Method: STANDARD PLATE) “inactive; negative”; (Test System: AMES SALMONELLA TYPHIMURIUM, Strain/Indicator: TA1535, Metabolic Activation: NONE, Method: STANDARD PLATE) “inactive; negative”. The mutagenic call (Test System: AMES SALMONELLA TYPHIMURIUM, Strain/Indicator: TA1535, Metabolic Activation: RAT, LIVER, S-9, AROCLOR 1254, Method: STANDARD PLATE) was “inactive; negative”; the mutagenic call (Test System: AMES SALMONELLA TYPHIMURIUM, Strain/Indicator: TA1537, Metabolic Activation: HAMSTER, LIVER, S-9, AROCLOR 1254, Method: STANDARD PLATE) was “inactive; negative”; the mutagenic call (Test System: AMES SALMONELLA TYPHIMURIUM, Strain/Indicator: TA1537, Metabolic Activation: NONE, Method: STANDARD PLATE) was “inactive; negative”; the mutagenic call (Test System: AMES SALMONELLA TYPHIMURIUM, Strain/Indicator: TA1537, Metabolic Activation: RAT, LIVER, S-9, AROCLOR 1254, Method: STANDARD PLATE) was “inactive; negative”; the mutagenic call (Test System: AMES SALMONELLA TYPHIMURIUM, Strain/Indicator: TA1538, Metabolic Activation: HAMSTER, LIVER, S-9, AROCLOR 1254, Method: STANDARD PLATE) is “inactive; negative”; the mutagenic call (Test System: AMES SALMONELLA TYPHIMURIUM, Strain/Indicator: TA1538, Metabolic Activation: NONE, Method: STANDARD PLATE) was “inactive; negative”. Besides, the mutagenic call is, setting by setting: (Test System: AMES SALMONELLA TYPHIMURIUM, Strain/Indicator: TA1538, Metabolic Activation: RAT, LIVER, S-9, AROCLOR 1254, Method: STANDARD PLATE) “inactive; negative”; (Test System: MOUSE LYMPHOMA, Strain/Indicator: L5178Y (TK+/TK-), Metabolic Activation: NONE, Method: SUSPENSION/PLATE) “inactive; negative. reevaluation of results: negative”; (Test System: MOUSE LYMPHOMA, Strain/Indicator: L5178Y (TK+/TK-), Metabolic Activation: RAT, LIVER, S-9, AROCLOR 1254, Method: SUSPENSION/PLATE) “inactive; negative. reevaluation of results: negative”.
Turning to `Cc1cccn2c1nc1ccc(NO)nc12`, the mutagenic call reads like this: (Test System: AMES SALMONELLA TYPHIMURIUM, Strain/Indicator: TA98, Metabolic Activation: NONE, Method: PREINCUBATION) “active; positive”; (Test System: AMES SALMONELLA TYPHIMURIUM, Strain/Indicator: YG1020, Metabolic Activation: NONE, Method: PREINCUBATION) “active; positive”; (Test System: AMES SALMONELLA TYPHIMURIUM, Strain/Indicator: YG1021, Metabolic Activation: NONE, Method: PREINCUBATION) “active; positive”; (Test System: AMES SALMONELLA TYPHIMURIUM, Strain/Indicator: YG1024, Metabolic Activation: NONE, Method: PREINCUBATION) “active; positive”; (Test System: AMES SALMONELLA TYPHIMURIUM, Strain/Indicator: YG1025, Metabolic Activation: NONE, Method: PREINCUBATION) “inactive; negative”; (Test System: AMES SALMONELLA TYPHIMURIUM, Strain/Indicator: YG1029, Metabolic Activation: NONE, Method: PREINCUBATION) “active; positive”. The mutagenic call (Test System: AMES SALMONELLA TYPHIMURIUM, Strain/Indicator: YG1041, Metabolic Activation: NONE, Method: PREINCUBATION) is “active; positive”.
`C#CC`: the mutagenic call by setting is: (End Point: IN VITRO CHROMOSOMAL ABERRATIONS, Test System: CHL CELLS, Metabolic Activation: RAT, LIVER, S-9, SODIUM PHENOBARBITAL AND 5,6-BENZOFLAVONE) “inactive; negative; authors report equivocal results for structural changes at the highest”; (Test System: AMES SALMONELLA TYPHIMURIUM, Strain/Indicator: TA98, Metabolic Activation: NONE, Method: GAS EXPOSURE) “inactive; negative”; (Test System: AMES SALMONELLA TYPHIMURIUM, Strain/Indicator: TA98, Metabolic Activation: RAT LIVER S-9, PHENOBARBITAL AND BETA-NAPHTHOFLAVONE (40%), Method: GAS EXPOSURE) “inactive; negative”; (Test System: AMES SALMONELLA TYPHIMURIUM, Strain/Indicator: TA98, Metabolic Activation: RAT, LIVER, S-9, PHENOBARBITAL AND 5,6-BENZOFLAVONE, Method: GAS EXPOSURE) “inactive; negative”; (Test System: AMES SALMONELLA TYPHIMURIUM, Strain/Indicator: TA100, Metabolic Activation: NONE, Method: GAS EXPOSURE) “inactive; negative”; (Test System: AMES SALMONELLA TYPHIMURIUM, Strain/Indicator: TA100, Metabolic Activation: RAT LIVER S-9, PHENOBARBITAL AND BETA-NAPHTHOFLAVONE (40%), Method: GAS EXPOSURE) “inactive; negative”. Besides, the mutagenic call reads like this: (Test System: AMES SALMONELLA TYPHIMURIUM, Strain/Indicator: TA100, Metabolic Activation: RAT, LIVER, S-9, PHENOBARBITAL AND 5,6-BENZOFLAVONE, Method: GAS EXPOSURE) “inactive; negative”; (Test System: AMES SALMONELLA TYPHIMURIUM, Strain/Indicator: TA1535, Metabolic Activation: NONE, Method: GAS EXPOSURE) “inactive; negative”; (Test System: AMES SALMONELLA TYPHIMURIUM, Strain/Indicator: TA1535, Metabolic Activation: RAT LIVER S-9, PHENOBARBITAL AND BETA-NAPHTHOFLAVONE (40%), Method: GAS EXPOSURE) “inactive; negative”; (Test System: AMES SALMONELLA TYPHIMURIUM, Strain/Indicator: TA1535, Metabolic Activation: RAT, LIVER, S-9, PHENOBARBITAL AND 5,6-BENZOFLAVONE, Method: GAS EXPOSURE) “inactive; negative”; (Test System: AMES SALMONELLA TYPHIMURIUM, Strain/Indicator: TA1537, Metabolic Activation: NONE, Method: GAS EXPOSURE) “inactive; negative”; (Test System: AMES SALMONELLA TYPHIMURIUM, Strain/Indicator: TA1537, Metabolic Activation: RAT LIVER S-9, PHENOBARBITAL AND BETA-NAPHTHOFLAVONE (40%), Method: GAS EXPOSURE) “inactive; negative”. In addition, the mutagenic call by setting is: (Test System: AMES SALMONELLA TYPHIMURIUM, Strain/Indicator: TA1537, Metabolic Activation: RAT, LIVER, S-9, PHENOBARBITAL AND 5,6-BENZOFLAVONE, Method: GAS EXPOSURE) “inactive; negative”; (Test System: E. COLI, Strain/Indicator: WP2 UVRA, Metabolic Activation: NONE, Method: GAS EXPOSURE) “active; positive”; (Test System: E. COLI, Strain/Indicator: WP2 UVRA, Metabolic Activation: RAT, LIVER, S-9, PHENOBARBITAL AND 5,6-BENZOFLAVONE, Method: GAS EXPOSURE) “active; positive”; (Test System: E.COLI, Strain/Indicator: WP2UVRA, Metabolic Activation: NONE, Method: GAS EXPOSURE) “active; positive”; (Test System: E.COLI, Strain/Indicator: WP2UVRA, Metabolic Activation: RAT LIVER S-9, PHENOBARBITAL AND BETA-NAPHTHOFLAVONE (40%), Method: GAS EXPOSURE) “active; positive”.
